According to PMC10000267, “ALA‐A2 Is a Novel Anticancer Peptide Inspired by Alpha‐Lactalbumin: A Discovery from a Computational Peptide Library, In Silico Anticancer Peptide Screening and In Vitro Experimental Validation” (Global Challenges, 2023):
Residues, ends and D or L forms follow the SMILES beside them.

Legend:
Human red blood cells = assay: Ex vivo hemolysis assay (RBC lysis assay); assay type: cell-based; settings: 1 h, peptide 200 µM; for percent hemolysis: ≈0.8% v/v human RBC suspension in 0.9% normal saline, room temperature, absorbance 415 nm, relative to 1% Triton X‐100, blood of three healthy individuals, mean ± SD
Procedure: The hemolysis assay was as described previously.^[ [30] ^] After informed consent, peripheral blood (3 mL) was collected from three healthy individuals into heparin tubes (BD Biosciences, NJ, USA). The specimen was centrifuged at 2000 × g for 5 min at room temperature, and the plasma was discarded. The RBCs were washed twice with PBS and then resuspended in 0.9% normal saline solution at a volume equivalent to that of the original plasma. Approximately 0.8% v/v RBC suspension was incubated with the peptides at 200 µM (100 µL final volume) in a U‐bottom 96‐well plate at room temperature for 1 h with agitation. 1% v/v Triton X‐100 was applied as a positive control. The untreated condition served as the blank control. After 1 h incubation, the supernatants were collected by centrifuging at 2000 × g for 5 min at room temperature. The absorbance of hemoglobin in the supernatant was measured at 415 nm. The hemolysis percentage was calculated as follows: (2) % Hemolysis = [sample absorbance−blank control/positive control−blank control] × 100

A549 lung cancer cells = assay: Confocal microscopy: cell internalization and membrane integrity (PI); assay type: cell-based, human; settings: A549, peptide 200 µM 24 h, Triton X‐100 0.5% v/v 10 min, PI staining
Procedure: All cells were then incubated with PI (1:2000) and Hoechst 33342 (1:5000) in the culture medium at 37 °C in 5% CO2 for 15 min. The cells were washed with PBS twice before being fixed with 4% paraformaldehyde (PFA) in PBS. The fixed cells were washed twice with PBS and mounted in 20% glycerol in PBS. […] Thereafter, the cells were stained with PI for 15 min at room temperature, washed with PBS, and then mounted with 20% glycerol in PBS. Internalization was visualized by confocal fluorescence microscopy (Nikon Instruments, Inc., Melville, NY, USA).

K562 leukemia cells = assay: In vitro cancer cytotoxicity (MTT assay); assay type: cell-based, human; settings: K562, peptide 200 µM, 24 h
Procedure: (§1) All cell lines were obtained from the American Type Culture Collection (ATCC, Manassas, VA, USA). The A549 lung adenocarcinoma (ATCC CCL‐185TM), MDA‐MB‐231 triple‐negative breast adenocarcinoma (ATCC HTB‐26TM), and SH‐SY5Y neuroblastoma (ATCC CRL‐2266TM) cell lines were cultured in Dulbecco's Modified Eagle's Medium (DMEM)‐high glucose (Gibco, Thermo Fisher Scientific, MA, USA). HT29 colon adenocarcinoma (ATCC HTB‐38) cell lines were maintained in DMEM/Nutrient Mixture F‐12 (Gibco). K562 chronic myeloid leukemia (ATCC CRL‐3344) were grown in Roswell Park Memorial Institute Medium 1640 (Gibco). The cells were cultured in medium supplemented with 10% fetal bovine serum (Gibco) and 1× penicillin/streptomycin (Gibco) and incubated in a 5% CO2 incubator with saturated humidity.
(§2) The protocol previously described by Chiangjong et al. and Baindara et al.^[ [5], [29] ^] was modified for use in determining the cytotoxicity of peptides on the various cancer types. Adherent cells were seeded at 1 × 10^4 cells/well into a 96‐well plate 24 h prior to replacing the media containing the peptide of interest. Suspended cells were seeded at 1 × 10^4 cells/well in the media containing the peptide of interest. Five human cell lines, including lung cancer (A549), colon cancer (HT29), breast cancer (MDA‐MB‐231), neuroblastoma (SH‐SY5Y), and leukemia (K562) cells, were treated with the culture media containing the peptides at 200 µM for 24 h. Cell viability was then determined using Cell Proliferation Kit I, MTT (Roche Diagnostics GmbH, Mannheim, Germany): MTT labeling reagent (10 µL) was added to each well and incubated at 37 °C in a 5% CO2 atmosphere for 4 h. After incubation, 100 µL solubilizing solution was added to each well and incubated at 37 °C in 5% CO2 overnight. The absorbance at 570 nm (A 570) was measured for each well. The percentage of cell viability was calculated as: (1) % Cell Viability=[A570 of treated cells − A570 of media/A570 of untreated cells−A570 of media] × 100

[1] = system: MDA‐MB‐231 breast cancer cells; assay: In vitro cancer cytotoxicity (MTT assay); assay type: cell-based, human; settings: MDA‐MB‐231, peptide 200 µM, 24 h
Procedure: as §1, §2

[2] = system: SH‐SY5Y neuroblastoma cells; assay: In vitro cancer cytotoxicity (MTT assay); assay type: cell-based, human; settings: peptide 200 µM, 24 h
Procedure: as §1, §2

[3] = system: HT29 colon adenocarcinoma cells; assay: In vitro cancer cytotoxicity (MTT assay); assay type: cell-based, human; settings: HT29, peptide 200 µM, 24 h
Procedure: as §1, §2
(§3) To evaluate dose‐dependency, ≈1 × 10^4 cells/well were cultured in media containing ALA‐A2 at 0, 6.25, 12.5, 25, 50, 100, 200, and 400 µM in a 96‐well plate for 24 h. Cell viability was determined by the MTT assay, as above.

[4] = system: A549 lung adenocarcinoma cells; assay: In vitro cancer cytotoxicity (MTT assay); assay type: cell-based, human; settings: A549, peptide 200 µM, 24 h
Procedure: as §1, §2, §3

| Molecule | hemolytic effect (in words) (Human red blood cells; human RBCs, Triton X‐100 1% v/v) | membrane integrity / propidium iodide internalization (in words) (A549 lung cancer cells) | percent hemolysis (Human red blood cells) | anticancer effect (in words) (K562 leukemia cells) | anticancer effect (in words) [1] | anticancer effect (in words) [2] | anticancer effect (in words) [3] | anticancer effect (in words) [4] |
| --- | --- | --- | --- | --- | --- | --- | --- | --- |
| Triton X‐100 [reference compound] | completely lysed | is internalized |  |  |  |  |  |  |
| CC[C@H](C)[C@H](NC(=O)[C@H](CCC(N)=O)NC(=O)[C@H](Cc1ccccc1)NC(=O)[C@@H](N)CC(C)C)C(=O)N[C@@H](CO)C(=O)N[C@@H](CC(N)=O)C(=O)N[C@@H](CCCCN)C(=O)N[C@@H](CC(C)C)C(=O)N[C@@H](Cc1c[nH]c2ccccc12)C(=O)N[C@@H](CS)C(=O)N[C@@H](CCCCN)C(=O)N[C@@H](CO)C(=O)N[C@@H](CO)C(=O)N[C@@H](CCC(N)=O)C(=O)N[C@H](C(=O)N1CCC[C@H]1C(=O)N[C@@H](CCC(N)=O)C(=O)N[C@@H](CO)C(=O)N[C@@H](CCCNC(=N)N)C(=O)N[C@@H](CC(N)=O)C(=O)O)C(C)C [ALA‐A4] (H-LFQISNKLWCKSSQVPQSRN-OH) |  |  | 0.7% ± 0.6% | did not exhibit a substantial anticancer effect | did not exhibit a substantial anticancer effect | did not exhibit a substantial anticancer effect | did not exhibit a substantial anticancer effect | did not exhibit a substantial anticancer effect |
| CC[C@H](C)[C@H](NC(=O)CNC(=O)[C@@H](NC(=O)[C@H](CC(C)C)NC(=O)[C@H](Cc1ccccc1)NC(=O)[C@H](CC(C)C)NC(=O)[C@@H]1CCCN1C(=O)[C@@H](NC(=O)[C@H](Cc1ccccc1)NC(=O)[C@H](Cc1ccccc1)NC(=O)[C@@H](N)CCCNC(=N)N)C(C)C)C(C)C)C(=O)N[C@@H](CC(C)C)C(=O)N[C@@H](Cc1ccccc1)C(=O)N1CCC[C@H]1C(=O)N[C@@H](C)C(=O)N[C@H](C(=O)N[C@@H](CC(C)C)C(=O)N[C@@H](C)C(=O)N[C@@H](CCCCN)C(=O)N[C@@H](CCC(N)=O)C(=O)N[C@@H](Cc1ccccc1)C(=O)N[C@H](C(=O)N[C@@H](CCCCN)C(=O)N[C@@H](CS)C(=O)O)[C@@H](C)O)[C@@H](C)CC [ALA‐A3] (H-RFFVPLFLVGILFPAILAKQFTKC-OH) |  |  | 1.3% ± 1.2% | did not exhibit a substantial anticancer effect | did not exhibit a substantial anticancer effect | did not exhibit a substantial anticancer effect | did not exhibit a substantial anticancer effect | did not exhibit a substantial anticancer effect |
| CC[C@H](C)[C@H](NC(=O)CNC(=O)[C@@H](NC(=O)[C@H](CC(C)C)NC(=O)[C@H](Cc1ccccc1)NC(=O)[C@H](CC(C)C)NC(=O)[C@@H]1CCCN1C(=O)[C@@H](NC(=O)[C@H](Cc1ccccc1)NC(=O)[C@H](Cc1ccccc1)NC(=O)[C@@H](N)CCCNC(=N)N)C(C)C)C(C)C)C(=O)N[C@@H](CC(C)C)C(=O)N[C@@H](Cc1ccccc1)C(=O)N1CCC[C@H]1C(=O)N[C@@H](C)C(=O)N[C@H](C(=O)N[C@@H](CC(C)C)C(=O)N[C@@H](C)C(=O)N[C@@H](CCCCN)C(=O)N[C@@H](CCC(N)=O)C(=O)N[C@@H](Cc1ccccc1)C(=O)N[C@H](C(=O)N[C@@H](CCCCN)C(=O)O)[C@@H](C)O)[C@@H](C)CC [ALA‐A1] (H-RFFVPLFLVGILFPAILAKQFTK-OH) |  |  | 5.6% ± 0.6% | did not exhibit a substantial anticancer effect | did not exhibit a substantial anticancer effect | did not exhibit a substantial anticancer effect | did not exhibit a substantial anticancer effect | did not exhibit a substantial anticancer effect |
| CC[C@H](C)[C@H](NC(=O)[C@H](CO)NC(=O)[C@@H]1CCCN1C(=O)[C@H](C)NC(=O)CNC(=O)[C@H](CC(C)C)NC(=O)[C@H](CCCCN)NC(=O)[C@H](CCCCN)NC(=O)[C@H](CCSC)NC(=O)[C@H](CCCNC(=N)N)NC(=O)[C@H](Cc1c[nH]c2ccccc12)NC(=O)[C@H](CCC(N)=O)NC(=O)[C@H](Cc1c[nH]c2ccccc12)NC(=O)[C@H](CCCNC(=N)N)NC(=O)[C@H](CCCNC(=N)N)NC(=O)[C@H](CS)NC(=O)[C@H](CCCCN)NC(=O)[C@@H](N)Cc1ccccc1)C(=O)N[C@H](C(=O)N[C@@H](CS)C(=O)N[C@H](C(=O)N[C@@H](CCCNC(=N)N)C(=O)O)C(C)C)[C@@H](C)O [BMP‐S6, reference compound] |  |  |  | exhibited cancer cytotoxicity |  |  |  |  |
